Assay results taken from patent publication US20250152569A1, “TREATMENT OF CELL PROLIFERATION-ASSOCIATED CONDITIONS USING A COMBINATION OF A CLB-B INHIBITOR AND AN ADDITIONAL THERAPEUTIC AGENT” (HOTSPOT THERAPEUTICS, INC., priority 2022, published 2025).

Legend:
Set-up in all cases: species or system female BALB/c mice
[1] = system: subcutaneous murine colorectal cancer model CT26.WT; assay: In vivo efficacy study, subcutaneous murine colorectal cancer model CT26.WT (Example 4); settings: Day 16
Description: The objective of this study was to evaluate preclinically the in vivo therapeutic efficacy of HotSpot Therapeutics's Test Articles in the treatment of the subcutaneous murine Colorectal model CT26.WT in female BALB/c mice. Compound 29 test particles were delivered via PO. Compound 29 was assessed at various dose levels in combination with Oxaliplatin or Cabozantinib. Tumor volumes and body weight were measured three times per week after the initiation of treatment.
The CT26.WT tumor cells were maintained in vitro with RPMI-1640 medium supplemented with 10% fetal bovine serum at 37° C. in an atmosphere of 5% CO2 in air. The cells in exponential growth phase were harvested and quantitated by cell counter before tumor inoculation.
Each mouse was inoculated subcutaneously it the right lower flank region with 5×10^5 tumor cells in 0.1 ml of PBS mixed with Matrigel (1:1) for tumor development.
The randomization started when the mean tumor size reached approximately 86.42 mm^3. 60 mice were enrolled in the study. All animals were randomly allocated to 6 study groups, 10 mice in each group. Randomization was performed based on “Matched distribution” method (StudyDirector™ software, version 3.1.399.19)
The date of randomization was denoted as day 0.
The treatment was initiated on the same day of randomization (day 0) per study design.
After tumor cells inoculation, the animals were checked daily for morbidity and mortality. During routine monitoring, the animals were checked for any effects of tumor growth and treatments on behavior such as mobility, food and water consumption, body weight gain/loss (Body weights were measured twice per week after randomization), eye/hair matting and any other abnormalities. Mortality and observed clinical signs were recorded for individual animals in detail.
Tumor volumes were measured twice per week after randomization in two dimensions using a caliper, and the volume was expressed in mm^3 using the formula: “V=(L×W×W)/2, where V was tumor volume, L was tumor length (the longest tumor dimension) and W was tumor width (the longest tumor dimension perpendicular to L). Dosing as well as tumor and body weight measurements were conducted in a Laminar Flow Cabinet.
The body weights and tumor volumes were measured by using StudyDirector™ software (version 3.1.399.19).
For Group 01 and Group 03 were terminated when the mean tumor volume of the vehicle control group reaches 2000 mm^3 on day 16.
For Group 02, Group 04, Group 05 and Group 06 were performed for 3 weeks. The study was terminated on day 21 (Sep. 21, 2022).
To compare tumor volumes of different groups at a pre-specified day, we first used Bartlett's test to check the assumption of homogeneity of variance across all groups. When the p-value of Bartlett's test was >=0.05, we ran one-way ANOVA to test overall equality of means across all groups. If the p-value of the one-way ANOVA was <0.05, we further performed post hoc testing by running Tukey's HSD (honest significant difference) tests for all pairwise comparisons, and Dunnett's tests for comparing each treatment group with the vehicle group. When the p-value of Bartlett's test was <0.05, we ran Kruskal-Wallis test to test overall equality of medians among all groups. If the p-value the Kruskal-Wallis test was <0.05, we further performed post hoc testing by running Conover's non-parametric test for all pairwise comparisons or for comparing each treatment group with the vehicle group, both with single-step p-value adjustment.
In addition, we performed pairwise comparisons without multiple comparison correction and report nominal/uncorrected p-values directly from Welch's t-test or Mann-Whitney U test at each time point. Specifically, we first used Shapiro Wilk test to check the assumption of normal distribution for each group. When p-values of Shapiro Wilk tests of both groups in a pair are >0.05, we ran Welch's t-test, otherwise we ran Mann-Whitney U test, to obtain nominal p-values. […]

[2] = system: subcutaneous murine colorectal cancer model CT26.WT; assay: In vivo efficacy study, CT26.WT model, combination with Doxorubicin, Gemcitabine or Paclitaxel (Example 5)
Description: The objective of this study was to evaluate preclinically the in vivo therapeutic efficacy of Test Articles in the treatment of the subcutaneous murine Colorectal model CT26.WT in female BALB/c mice. Compound 29 test particles were delivered via PO. Compound 29 was assessed at various dose levels in combination with Doxorubicin, Gemcitabine or Paclitaxel. Tumor volumes and body weight were measured three times per week after the initiation of treatment.
The CT26.WT tumor cells will be maintained in vitro with RPMI-1640 medium supplemented with 10% fetal bovine serum at 37° C. in an atmosphere of 5% CO2 in air. The cells in exponential growth phase will be harvested and quantitated by cell counter before tumor inoculation.
Each ach mouse will be inoculated subcutaneously in the right lower flank region with CT26 tumor cells (5×10^5) in 0.1 ml of PBS for tumor development.
The randomization will start when the mean tumor size reaches approximately 80-100 mm^3. […] Randomization will be performed based on “Matched distribution” method/“Stratified” method (Study Director™ software, version 3.1.399.19)/randomized block design. The date of randomization will be denoted as day 0. […]
After tumor cells inoculation, the animals will be checked daily for morbidity and mortality. During routine monitoring, the animals will be checked for any effects of tumor growth and treatments on behavior such as mobility, food and water consumption, body weight gain/loss (Body weights will be measured twice per week after randomization), eye/hair matting and any other abnormalities. Mortality and observed clinical signs will be recorded for individual animals in detail.
Tumor volumes will be measured twice per week after randomization in two dimensions using a caliper, and the volume will be expressed in mm^3 using the formula: “V=(L×W×W)/2, where V is tumor volume, L is tumor length (the longest tumor dimension) and W is tumor width (the longest tumor dimension perpendicular to L). […]
(§1) The body weights and tumor volumes will be measured by using StudyDirector™ software (version 3.1.399.19). […]

[3] = system: subcutaneous murine colorectal cancer model CT26.WT; assay: In vivo efficacy study, CT26.WT model, combination with ALT-803 (Example 6); settings: Compound 29 30 mg/kg p.o. BID in combination with ALT-803 0.2 mg/kg i.p. QW; FIG. 5A, 5B
Description: The objective of this study was to evaluate preclinically the in vivo therapeutic efficacy of Test Articles in the treatment of the subcutaneous murine Colorectal model CT26.WT in female BALB/c mice. Compound 29 test particles were delivered via PO. Compound 29 was assessed at various dose levels in combination with ALT-803. Tumor volumes and body weight were measured three times per week after the initiation of treatment.
The CT26.WT tumor cells will be maintained in vitro with RPMI-1640 medium supplemented with 10% fetal bovine serum at 37° C. in an atmosphere of 5% CO2 in air. The cells in exponential growth phase will be harvested and quantitated by cell counter before tumor inoculation. […]
After tumor cells inoculation, the animals will be checked daily for morbidity and mortality. During routine monitoring, the animals will be checked for any effects of tumor growth and treatments on behavior such as mobility, food and water consumption, body weight gain/loss (Body weights will be measured twice per week after randomization), eye/hair matting and any other abnormalities. Mortality and observed clinical signs will be recorded for individual animals in detail. […]
as §1

[4] = single agent, Compound 29 60 mg/kg p.o. BID, Oxaliplatin 5 mg/kg i.p. Q4D, Cabozantinib 10 mg/kg p.o. QD
[5] = Compound 29 60 mg/kg p.o. BID in combination with Cabozantinib 10 mg/kg p.o. QD (Group 6)
[6] = Compound 29 60 mg/kg p.o. BID in combination with Oxaliplatin 5 mg/kg i.p. Q4D (Group 5)

Compound | T/C (%) [1, 4] | TGI (%) [1, 4] | Tumor Volume (mean ± SEM) [1, 4] | T/C (%) [1, 5] | TGI (%) [1, 5] | Tumor Volume (mean ± SEM) [1, 5] | T/C (%) [1, 6] | TGI (%) [1, 6] | Tumor Volume (mean ± SEM) [1, 6] | effect on tumor inhibition as compared to each of the agents as monotherapies ([2]; Compound 29 60 mg/kg p.o. BID in combination with Doxorubicin 4 mg/kg i.v. Q4D, FIG. 2A, 2B) | effect on tumor inhibition as compared to each of the agents as monotherapies ([2]; Compound 29 60 mg/kg p.o. BID in combination with Gemcitabine 5 mg/kg i.p. Q3D, FIG. 3A, 3B) | effect on tumor inhibition as compared to each of the agents as monotherapies ([2]; Compound 29 60 mg/kg p.o. BID in combination with Paclitaxel 20 mg/kg i.p. QW, FIG. 4A, 4B) | effect on tumor inhibition as compared to each of the agents as monotherapies [3]
O=C1[O][Pt]2([NH][C@@H]3CCCC[C@H]3[NH]2)[O]C1=O [Oxaliplatin, reference compound] | 103.27% | −3.27% | 2609.42 ± 203.84 mm^3 |  |  |  |  |  |  |  |  |  | 
C[C@H]1CCCN(Cc2cc(C(F)(F)F)c3cn(-c4cccc(C5(Cc6nncn6C)COC5)c4)c(=O)n3c2)C1 [Compound 29] | 56.42% | 43.58% | 1425.65 ± 232.85 mm^3 | 25.45% | 74.55% | 643.08 ± 59.79 mm^3 | 35.94% | 64.06% | 908.21 ± 76.22 mm^3 | improved effect on tumor inhibition | improved effect on tumor inhibition | improved effect on tumor inhibition | improved effect on tumor inhibition
COc1cc2nccc(Oc3ccc(NC(=O)C4(C(=O)Nc5ccc(F)cc5)CC4)cc3)c2cc1OC [Cabozantinib, reference compound] | 30.55% | 69.45% | 772.01 ± 100.44 mm^3 |  |  |  |  |  |  |  |  |  | 
